15 compounds from ChEMBL document CHEMBL1134355 (J Med Chem, 2001) can be followed below.

As a reminder, the inhibition is the drop in the measured response relative to a control, in per cent. Lower therefore signals a response near the control. What is called Km is the substrate concentration at which the rate is half of its maximum. One may read the IC50 as the point on the concentration scale where inhibition reaches its midpoint. A lower IC50 goes with inhibition by little substance.

Molecules are shown by their SMILES.

The target of data set [1] is T1, Steroid 17-alpha-hydroxylase/17,20 lyase (Homo sapiens, UniProt P05093).
T1 sequence (P05093 whole entry): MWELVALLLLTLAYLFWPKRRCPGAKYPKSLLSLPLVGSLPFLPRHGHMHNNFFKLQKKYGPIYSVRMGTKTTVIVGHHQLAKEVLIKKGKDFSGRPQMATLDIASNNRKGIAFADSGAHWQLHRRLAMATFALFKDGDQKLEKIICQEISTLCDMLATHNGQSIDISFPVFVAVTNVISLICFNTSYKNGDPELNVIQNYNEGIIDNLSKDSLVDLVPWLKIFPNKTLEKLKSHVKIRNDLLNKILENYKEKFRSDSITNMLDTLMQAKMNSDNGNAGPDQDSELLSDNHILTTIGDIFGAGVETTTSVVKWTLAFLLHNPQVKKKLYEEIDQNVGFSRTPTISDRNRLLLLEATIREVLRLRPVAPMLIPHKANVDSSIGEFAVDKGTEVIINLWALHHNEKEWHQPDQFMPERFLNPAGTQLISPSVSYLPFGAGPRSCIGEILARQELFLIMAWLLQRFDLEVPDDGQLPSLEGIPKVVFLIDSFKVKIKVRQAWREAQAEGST

A further data set deals with T2, Aromatase (Homo sapiens, UniProt P11511).
T2 sequence (P11511 whole entry): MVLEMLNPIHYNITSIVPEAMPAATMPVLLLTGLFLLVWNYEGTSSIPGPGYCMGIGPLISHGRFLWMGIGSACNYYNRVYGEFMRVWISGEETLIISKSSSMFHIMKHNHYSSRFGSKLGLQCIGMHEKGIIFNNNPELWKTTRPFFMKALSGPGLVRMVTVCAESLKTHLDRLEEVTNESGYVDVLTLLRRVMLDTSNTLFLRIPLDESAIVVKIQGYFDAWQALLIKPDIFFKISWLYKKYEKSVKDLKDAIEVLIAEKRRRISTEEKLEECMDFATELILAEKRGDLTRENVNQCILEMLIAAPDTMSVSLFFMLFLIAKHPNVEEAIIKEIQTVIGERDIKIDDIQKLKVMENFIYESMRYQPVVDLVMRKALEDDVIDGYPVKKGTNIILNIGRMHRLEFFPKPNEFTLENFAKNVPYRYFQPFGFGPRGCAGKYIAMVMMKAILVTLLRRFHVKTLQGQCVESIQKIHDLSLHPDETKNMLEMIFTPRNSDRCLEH

For data set [2], the target named is T1, Steroid 17-alpha-hydroxylase/17,20 lyase. This is another data set of the same source.

`N#Cc1ccc(Cn2ccnc2)c2occc(=O)c12` showed an inhibition at 2.5 µM in data set [1] of 3%.

The compound `O=c1c2ccccc2oc2cc(Cn3cnnc3)ccc12` registered an inhibition at 25 µM against Aromatase of 27%. For the same compound, 2.5 µM produced 8% inhibition in data set [1].

The compound `O=c1ccoc2c(Cn3ccnc3)ccc([N+](=O)[O-])c12` returned an inhibition at 2.5 µM in data set [1] of 5%.

For the compound `N#Cc1ccc(Cn2ccnc2)c2oc3ccccc3c(=O)c12`, testing at 2.5 µM in data set [1] gave an inhibition of 14%.

On to `O=c1c2ccccc2oc2c(Cn3ccnc3)ccc([N+](=O)[O-])c12`, for which the inhibition at 2.5 µM in data set [1] is 4%. Moreover, the Km in the data set filed under Homo sapiens worked out at 65.1 nM.

In turn, `O=c1ccoc2c(Cn3ccnc3)ccc(Br)c12` returned an inhibition at 2.5 µM in data set [1] of 26%.

The compound `O=c1c2ccccc2oc2c(Br)ccc(Cn3ccnc3)c12` came in with a concentration for half-maximal inhibition (IC50) in data set [2] of 42 nM. This compound also yielded an inhibition at 2.5 µM in data set [1] of 98%.

Take `O=c1c2ccccc2oc2cc(Cn3ccnc3)ccc12`: the inhibition at 2.5 µM in data set [1] worked out at 33%.

Compound `O=c1ccoc2cc(Cn3cnnc3)ccc12` returned an inhibition at 2.5 µM in data set [1] of 5%.

As for `COc1ccc2c(=O)c(Cn3ccnc3)c(-c3ccccc3)oc2c1`, in data set [1], the inhibition at 2.5 µM worked out at 44%.

In turn, `COc1ccc2c(=O)c(Cn3cnnc3)c(-c3ccccc3)oc2c1` had an inhibition at 25 µM against Aromatase of 21%. The inhibition at 2.5 µM in data set [1] was determined as 14%.

Turning to `O=c1c2ccccc2oc2c(Cn3ccnc3)ccc(Br)c12`, in data set [1], at 2.5 µM the inhibition was 38%.

Consider `O=c1c2ccccc2oc2c([N+](=O)[O-])ccc(Cn3ccnc3)c12`, for which the 50% inhibitory concentration (IC50) in data set [2] came out at 130 nM. Further, the inhibition at 2.5 µM in data set [1] was 94%.

Take `O=c1ccoc2cc(Cn3ccnc3)ccc12`: in data set [1], testing at 2.5 µM gave an inhibition of 9%.

As for `N#Cc1ccc(Cn2ccnc2)c2c(=O)c3ccccc3oc12`, in data set [2], the IC50 is 220 nM. Moreover, the inhibition at 2.5 µM in data set [1] stood at 92%.
